Source: patent US8354539B2, “Indole derivatives as IKK2 inhibitors” (Glaxo Group Limited, priority 2009, dated 2013)

Legend:
LPS induced neutrophilia = assay: Inhaled LPS induced neutrophilia in the male CD rat; format: in vivo; details: dose of 300 ug/kg i.t.
Protocol: Male CD rats (150-250 g) were anaesthetised with isoflurane (5%, 2 L/min O2, 1 L/min […]) and positioned on their back on a dosing table at a 35 degree angle, with a metal rod placed under their incisors to keep them in place. A light was angled against the outside of the throat to highlight the trachea. The mouth was opened to visualise the upper opening of the airway and a portex cannula was introduced into the trachea via a blunt dosing needle. 200 ul of compound formulation was then injected into the airways. After dosing, animals were placed in a supine position during recovery from anaesthesia.
Approximately thirty minutes following dosing of compound or vehicle, the rats were placed into a cloud chamber and exposed to an aerosol of lipopolysaccharide, generated from a 150 ug/ml solution for 15 min.
Four hours following LPS challenge the animals were culled with an overdose of sodium pentobarbitone given intraperitoneally. The trachea was exposed and a small incision made, into which a tube was inserted towards the lungs. The lungs were then washed with 3 times with 5 mls heparinised (10 U/ml) PBS.
The bronchoalveolar lavage fluid (BALF) samples were centrifuged at 1300 rpm for 7 minutes. […] The total cells were also counted from the resuspension using a Sysmex counter. From these two counts, the total numbers of neutrophils in the BALF were determined.

Recombinant human IKK1 = target: T1, Recombinant human IKK1 (Homo sapiens, UniProt O15111); assay: IKK1 time-resolved fluorescence resonance energy transfer assay; format: biochemical; details: IKK2 assay and IKK2 time dependent assay versus IKK1 TR-FRET assay
T1 construct: Recombinant human IKK1 (residues 1-785); 6HIS (C); made in house
T1 sequence (O15111 1-745): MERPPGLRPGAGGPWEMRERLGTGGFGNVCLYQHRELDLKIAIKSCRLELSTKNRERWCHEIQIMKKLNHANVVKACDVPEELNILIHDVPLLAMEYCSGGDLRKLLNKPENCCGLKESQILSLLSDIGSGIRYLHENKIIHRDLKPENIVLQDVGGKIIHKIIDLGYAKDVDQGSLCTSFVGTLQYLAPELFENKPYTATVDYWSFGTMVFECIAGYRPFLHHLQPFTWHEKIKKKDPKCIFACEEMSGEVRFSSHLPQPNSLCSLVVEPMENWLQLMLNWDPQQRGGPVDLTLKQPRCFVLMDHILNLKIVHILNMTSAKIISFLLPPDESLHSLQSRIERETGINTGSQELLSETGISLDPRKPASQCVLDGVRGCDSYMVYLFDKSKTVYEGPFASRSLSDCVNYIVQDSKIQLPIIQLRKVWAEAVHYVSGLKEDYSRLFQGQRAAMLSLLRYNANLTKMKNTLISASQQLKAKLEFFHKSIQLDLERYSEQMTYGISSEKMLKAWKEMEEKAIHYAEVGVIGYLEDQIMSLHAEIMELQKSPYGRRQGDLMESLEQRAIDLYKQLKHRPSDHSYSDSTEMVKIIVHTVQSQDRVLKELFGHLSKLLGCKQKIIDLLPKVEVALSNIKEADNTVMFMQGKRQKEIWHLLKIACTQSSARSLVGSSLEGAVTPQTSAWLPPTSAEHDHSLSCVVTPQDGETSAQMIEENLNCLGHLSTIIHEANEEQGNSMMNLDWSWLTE
Protocol: Recombinant human IKK1 (residues 1-785) was expressed in baculovirus as a C-terminal 6HIS-tagged fusion protein, and its activity was assessed using a time-resolved fluorescence resonance energy transfer (TR-FRET) assay. Briefly, IKK1 (typically 5-10 nM final) diluted in assay buffer (50 mM HEPES, 10 mM MgCl2, 1 mM CHAPS pH 7.4 with 1 mM DTT and 0.01% w/v BSA) was added to wells containing various concentrations of compound or DMSO vehicle (1.7% v/v final). The reaction was initiated by the addition of GST-IκBα substrate (25 nM final)/ATP (1 μM final), in a total volume of 6 μl. The reaction was incubated for 15 minutes at room temperature, then terminated by the addition of stop reagent (3 μl) containing 50 mM EDTA and detection reagents in buffer (100 mM HEPES pH 7.4, 150 mM NaCl and 0.01% w/v BSA). […] The degree of phosphorylation of GST-IκBα was measured using a suitable time-resolved fluorimeter such as Packard Discovery (Perkin-Elmer Life Sciences, Pangbourne, Berkshire, UK), Wallac Viewlux (Perkin-Elmer Life Sciences, Pangbourne, Berkshire, UK), Envision (Perkin-Elmer Life Sciences, Pangbourne, Berkshire, UK), or Rubystar (BMG, Aylesbury, Buckinghamshire, UK) as a ratio of specific 665 nm energy transfer signal to reference europium 620 nm signal.

human whole blood = assay: Human whole blood assay (LPS stimulated TNFα); format: cell-based; details: read-out: pIC50 potency, inhibition of TNF production (converted)
Protocol: Heparinised blood drawn from normal volunteers was dispensed (100 μl) into microtitre plate wells containing 1.0 μl of an appropriately diluted compound solution in DMSO. After 1 hr incubation at 37° C., 5% CO2, 25 μl LPS solution (S. typhosa) in RPMI 1640 (containing 1% L-glutamine and 1% Penicillin/streptomycin) was added (50 ng/ml final). The samples were incubated at 37° C., 5% CO2 for 20 hours, 50 μls physiological saline (0.138% NaCl) was added and diluted plasma was collected using a Biomek FX liquid handling robot after centrifugation at 1300 g for 10 min. Plasma TNFα content was determined by electrochemiluminescence assay using the Mesoscale (MSD) technology.
20 μl supernatant from PBMC plates or 40 μl from whole blood plates was transferred using the Biomek FX to a 96 well High-Bind MSD assay plate precoated with anti-hTNF alpha capture antibody and containing 25 μl of MSD human serum cytokine assay diluent. […] The plates were shaken at room temperature for a further 1 hour before washing again and adding 150 μl of MSD Read Buffer T (2×). Plates were then read on the MSD Sector 6000 plate reader. For the PBMC assay, supernatant addition to the MSD plates was followed immediately by 20 μl of MSD detection antibody, the plates were then sealed and shaken for 2 hours before addition of 90 μl of MSD Read Buffer P (2.5×). Plates were read on the MSD Sector 6000. […]

- IC50 (human whole blood): < 316 nM
Structure (SMILES): COCCS(=O)(=O)N1CCC(c2c[nH]c3c(C(N)=O)cc(-c4ccc5c(c4)CN(C(C)C)C5)cc23)CC1 [Compound of formula (I), 5-[2-(1-methylethyl)-2,3-dihydro-1H-isoindol-5-yl]-3-(1-{[2-(methyloxy)ethyl]sulfonyl}-4-piperidinyl)-1H-indole-7-carboxamide]
- inhibition of LPS induced neutrophilia (LPS induced neutrophilia): greater than 75%
- potency at IKK2 relative to IKK1 (Recombinant human IKK1): inhibited IKK2 with greater potency than IKK1
